Experimental data taken from patent US20250295763A1 (priority 2024, published 2025).
Like-named read-outs stand apart in the source and are kept apart here. Peptide text beside a SMILES is read from it. * marks the point of attachment. X1 = CCCCCCCCCCCCCCCC(=O)OCC(C*)OC(=O)CCCCCCCCCCCCCCC

What was measured:
H3N2 = format: in vivo, C57BL/6 mice
[1] = for Average body weight change (%) Post-dose 1 D 1 / Body weight change (%) Post-dose 1 D 1: i.m. Days 0 and 14, 0.3 mcg H3N2; for Average body weight change (%) Post-dose 1 D 2 / Average body weight change (%) Post-dose 1 D 14 / Average body weight change (%) Post-dose 2 D 15 / Average body weight change (%) Post-dose 2 D 16 / Average body weight change (%) Post-dose 2 D 21 / Body weight change (%) Post-dose 1 D 2 / Body weight change (%) Post-dose 1 D 14 / Body weight change (%) Post-dose 2 D 15 / Body weight change (%) Post-dose 2 D 16 / Body weight change (%) Post-dose 2 D 21: same groups
[2] = Table 4, after the boost (day 28), 5 mcg TLR4 agonist / 50 mcg Synsap, 0.3 mcg H3N2
[3] = Table 3, 5/50 mcg TLR4 agonist/Synsap, alone: 5 mcg 3D-6A-PHAD, 5 mcg EcML, 10 mcg TLR4-1, 50 mcg Synsap, 5/5 mcg AS01B
[4] = Table 6, after the boost (day 28), 100 mcg Synsap 5, 10 mcg Pam3CSK4, 0.3 mcg H3N2
[5] = Table 5, 100 mcg Synsap 5, 10 mcg Pam3CSK4
[6] = Table 8, after the boost (day 28), 10 mcg R848 with 2, 10, 50 or 100 mcg Synsap 14, 0.3 mcg H3N2
[7] = Table 7, 10 mcg R848 with 2, 10, 50 or 100 mcg Synsap 14

CCCCCCCCCCCCCC(=O)O[C@H](CCCCCCCCCCC)CC(=O)OC1C(NC(=O)C[C@@H](CCCCCCCCCCC)OC(=O)CCCCCCCCCCC)[C@H](OCC2O[C@H](O)C(NC(=O)C[C@H](O)CCCCCCCCCCC)C(OC(=O)C[C@H](O)CCCCCCCCCCC)[C@@H]2O)OC(CO)[C@H]1OP(=O)(O)O (stereo partly drawn) [EcML, reference compound]
HI titers GMT mean (H3N2; [2]): 403.2 | HI titers Fold (compare to AS01B) (H3N2; Table 4, day 28): 0.3 | HI titers Fold (compare to H3N2) (H3N2; Table 4, day 28): 2.5 | Average body weight change (%) Post-dose 1 D 1 [1, 3]: −3.607% | Average body weight change (%) Post-dose 1 D 2 ([1]; Table 3): −1.832% | Average body weight change (%) Post-dose 1 D 14 ([1]; Table 3): 7.914% | Average body weight change (%) Post-dose 2 D 15 ([1]; Table 3): −3.002% | Average body weight change (%) Post-dose 2 D 16 ([1]; Table 3): −0.735% | Average body weight change (%) Post-dose 2 D 21 ([1]; Table 3): 1.468%

CCCCCCCCCCCCCCCC(=O)OCC(CSC[C@H](N)C(=O)N[C@@H](CO)C(=O)N[C@@H](CCCCN)C(=O)N[C@@H](CCCCN)C(=O)N[C@@H](CCCCN)C(=O)N[C@@H](CCCCN)C(=O)O)OC(=O)CCCCCCCCCCCCCCC (stereo partly drawn) [Pam3CSK4, reference compound] (H-C(X1)SKKKK-OH)
HI titers GMT mean (H3N2; [4]): 2176 | HI Titers Fold (compare to CpG1018) (H3N2; Table 6, day 28): 1.0 | HI Titers Fold (compare to SynSap 17) (H3N2; Table 6, day 28): 1.1 | HI titers Fold (compare to H3N2) (H3N2; Table 6, day 28): 14 | Body weight change (%) Post-dose 1 D 1 [1, 5]: −0.996% | Body weight change (%) Post-dose 1 D 2 ([1]; Table 5): 2.635% | Body weight change (%) Post-dose 1 D 14 ([1]; Table 5): 6.308% | Body weight change (%) Post-dose 2 D 15 ([1]; Table 5): −0.998% | Body weight change (%) Post-dose 2 D 16 ([1]; Table 5): 0.169% | Body weight change (%) Post-dose 2 D 21 ([1]; Table 5): 4.551%

COc1ccc(CCCCCCCCNC(=O)[C@H]2O[C@@H](O[C@H]3CCC4(C)C5CC=C6C7CC(C)(C)CC[C@]7(C(=O)O[C@@H]7OC(C)[C@H](O)[C@H](O)C7O[C@@H]7OC(C)[C@H](O[C@@H]8OC[C@@H](O)[C@H](O)C8O)[C@H](O)C7O)C(O)CC6(C)[C@@]5(C)CC[C@H]4[C@@]3(C)C=O)[C@H](O)[C@@H](O)[C@@H]2O)cc1 (stereo partly drawn) [Synsap 1]
HI titers GMT mean (H3N2; [2]): 320 | HI titers Fold (compare to AS01B) (H3N2; Table 4, day 28): 0.25 | HI titers Fold (compare to H3N2) (H3N2; Table 4, day 28): 2 | Average body weight change (%) Post-dose 1 D 1 [1, 3]: −1.096% | Average body weight change (%) Post-dose 1 D 2 ([1]; Table 3): −1.736% | Average body weight change (%) Post-dose 1 D 14 ([1]; Table 3): 3.753% | Average body weight change (%) Post-dose 2 D 15 ([1]; Table 3): 2.417% | Average body weight change (%) Post-dose 2 D 16 ([1]; Table 3): −1.393% | Average body weight change (%) Post-dose 2 D 21 ([1]; Table 3): 6.148%

CCCCCCCCCCCCCC(=O)O[C@H](CCCCCCCCCCC)CC(=O)NC1C(OC(=O)C[C@@H](CCCCCCCCCCC)OC(=O)CCCCCCCCCCCCC)[C@H](OP(=O)(O)O)C(CO)O[C@H]1OCC1O[C@H](O)C(NC(=O)C[C@@H](CCCCCCCCCCC)OC(=O)CCCCCCCCCCCCC)C(O)[C@@H]1O.N (stereo partly drawn) [Synsap 3D-6A-PHAD, reference compound]
HI titers GMT mean (H3N2; [2]): 806.3 | HI titers Fold (compare to AS01B) (H3N2; Table 4, day 28): 0.6 | HI titers Fold (compare to H3N2) (H3N2; Table 4, day 28): 5.0 | Average body weight change (%) Post-dose 1 D 1 [1, 3]: −5.362% | Average body weight change (%) Post-dose 1 D 2 ([1]; Table 3): −2.900% | Average body weight change (%) Post-dose 1 D 14 ([1]; Table 3): 6.215% | Average body weight change (%) Post-dose 2 D 15 ([1]; Table 3): −1.147% | Average body weight change (%) Post-dose 2 D 16 ([1]; Table 3): 0.463% | Average body weight change (%) Post-dose 2 D 21 ([1]; Table 3): 2.331%

CC1O[C@@H](OC(=O)[C@]23CCC(C)(C)CC2C2=CCC4C5(C)CC[C@H](O[C@@H]6O[C@H](C(=O)NCCCCCCCCc7ccc(Oc8ccccc8)cc7)[C@@H](O)[C@H](O)[C@H]6O)[C@](C)(C=O)[C@@H]5CC[C@]4(C)C2(C)CC3O)C(O[C@@H]2OC(C)[C@H](O[C@@H]3OC[C@@H](O)[C@H](O)C3O)[C@H](O)C2O)[C@@H](O)[C@H]1O (stereo partly drawn) [Synsap 3]
HI titers GMT mean (H3N2; [2]): 192 | HI titers Fold (compare to AS01B) (H3N2; Table 4, day 28): 0.15 | HI titers Fold (compare to H3N2) (H3N2; Table 4, day 28): 1.2 | Average body weight change (%) Post-dose 1 D 1 ([1]; Table 1, 5 mcg 3D-PHAD with 5, 50, 75 or 100 mcg Synsap 3, Synsap 3 alone 50 mcg): 2.176% | Average body weight change (%) Post-dose 1 D 2 ([1]; Table 1): 2.174% | Average body weight change (%) Post-dose 1 D 14 ([1]; Table 1): 6.946% | Average body weight change (%) Post-dose 2 D 15 ([1]; Table 1): −0.739% | Average body weight change (%) Post-dose 2 D 16 ([1]; Table 1): 1.208% | Average body weight change (%) Post-dose 2 D 21 ([1]; Table 1): 2.329% | Average body weight change (%) Post-dose 1 D 1 [1, 3]: 2.176% | Average body weight change (%) Post-dose 1 D 2 ([1]; Table 3): 2.174% | Average body weight change (%) Post-dose 1 D 14 ([1]; Table 3): 6.946% | Average body weight change (%) Post-dose 2 D 15 ([1]; Table 3): −0.739% | Average body weight change (%) Post-dose 2 D 16 ([1]; Table 3): 1.208% | Average body weight change (%) Post-dose 2 D 21 ([1]; Table 3): 2.329%

CC1O[C@@H](OC(=O)[C@]23CCC(C)(C)CC2C2=CCC4C5(C)CC[C@H](O[C@@H]6O[C@H](C(=O)NCCCCCCCCc7ccc(N8CCOCC8)cc7)[C@@H](O)[C@H](O)[C@H]6O)[C@](C)(C=O)[C@@H]5CC[C@]4(C)C2(C)CC3O)C(O[C@@H]2OC(C)[C@H](O[C@@H]3OC[C@@H](O)[C@H](O)C3O)[C@H](O)C2O)[C@@H](O)[C@H]1O (stereo partly drawn) [Synsap 5]
HI titers GMT mean (H3N2; [4]): 2048 | HI Titers Fold (compare to CpG1018) (H3N2; Table 6, day 28): 0.9 | HI Titers Fold (compare to SynSap 17) (H3N2; Table 6, day 28): 1.0 | HI titers Fold (compare to H3N2) (H3N2; Table 6, day 28): 13 | Body weight change (%) Post-dose 1 D 1 [1, 5]: −3.166% | Body weight change (%) Post-dose 1 D 2 ([1]; Table 5): 1.523% | Body weight change (%) Post-dose 1 D 14 ([1]; Table 5): 4.909% | Body weight change (%) Post-dose 2 D 15 ([1]; Table 5): −0.174% | Body weight change (%) Post-dose 2 D 16 ([1]; Table 5): 3.144% | Body weight change (%) Post-dose 2 D 21 ([1]; Table 5): 7.000%

CC1O[C@@H](OC2[C@H](OC(=O)[C@]34CCC(C)(C)CC3C3=CCC5C6(C)CC[C@H](O[C@@H]7O[C@H](C(=O)NCCCCCCCCc8ccc(Oc9ccc(F)cc9)cc8)[C@@H](O)[C@H](O)[C@H]7O)[C@](C)(C=O)[C@@H]6CC[C@]5(C)C3(C)CC4O)OC[C@H](O)[C@H]2O)C(O)[C@@H](O)[C@H]1O[C@@H]1OC[C@@H](O)[C@H](O)C1O (stereo partly drawn) [Synsap 14]
HI titer GMT mean (H3N2; [6]): 192 | HI titer Fold (compare to H3N2 alone) (H3N2; Table 8, day 28): 1.2 | HI titer Fold (compare to R848 treated group) (H3N2; Table 8, day 28): 1.0 | HI titer Fold (compare to SynSap 14 treated group) (H3N2; Table 8, day 28): 1.0 | Body weight change (%) Post-dose 1 D 1 [1, 7]: −1.769% | Body weight change (%) Post-dose 1 D 2 ([1]; Table 7): −0.704% | Body weight change (%) Post-dose 1 D 14 ([1]; Table 7): 3.586% | Body weight change (%) Post-dose 2 D 15 ([1]; Table 7): −0.277% | Body weight change (%) Post-dose 2 D 16 ([1]; Table 7): −0.654% | Body weight change (%) Post-dose 2 D 21 ([1]; Table 7): 3.064%

CC1O[C@@H](OC(=O)[C@]23CCC(C)(C)CC2C2=CCC4C5(C)CC[C@H](O[C@@H]6O[C@H](C(=O)NCCCCCCCCc7ccc(Oc8ccccc8)cc7)[C@@H](O)[C@H](O)[C@H]6O)[C@](C)(C=O)[C@@H]5CC[C@]4(C)C2(C)CC3O)C(O[C@@H]2OC(C)[C@H](O[C@@H]3OC[C@@H](O)[C@H](O)C3O)[C@H](O[C@@H]3OC(CO)[C@@H](O)[C@H](O)C3O)C2O)[C@@H](O)[C@H]1O (stereo partly drawn) [Synsap 17]
HI titer GMT mean (H3N2; Table 10, after the boost (day 28), CpG 1018 / Synsap 17 ratios, 0.3 mcg H3N2): 183.8 | HI titer Fold (compare to CpG1018) (H3N2; Table 10, day 28): 0.6 | HI titer Fold (compare to H3N2) (H3N2; Table 10, day 28): 1.1 | HI titer Fold (compare to Synsap 17) (H3N2; Table 10, day 28): 1.0 | Body weight change (%) Post-dose 1 D 1 ([1]; Table 9, 10 mcg CpG 1018 with 10, 50, 75 or 100 mcg Synsap 17, or 50 mcg CpG 1018 with 10 mcg Synsap 17): −1.769% | Body weight change (%) Post-dose 1 D 2 ([1]; Table 9): −0.704% | Body weight change (%) Post-dose 1 D 14 ([1]; Table 9): 3.586% | Body weight change (%) Post-dose 2 D 15 ([1]; Table 9): −0.277% | Body weight change (%) Post-dose 2 D 16 ([1]; Table 9): −0.654% | Body weight change (%) Post-dose 2 D 21 ([1]; Table 9): 2.921%

CCOCc1nc2c(N)nc3ccccc3c2n1CC(C)(C)O [Synsap R848, Resiquimod, reference compound]
HI titer GMT mean (H3N2; [6]): 183.8 | HI titer Fold (compare to H3N2 alone) (H3N2; Table 8, day 28): 1.1 | HI titer Fold (compare to R848 treated group) (H3N2; Table 8, day 28): 1.0 | HI titer Fold (compare to SynSap 14 treated group) (H3N2; Table 8, day 28): 1.0 | Body weight change (%) Post-dose 1 D 1 [1, 7]: −3.012% | Body weight change (%) Post-dose 1 D 2 ([1]; Table 7): −0.416% | Body weight change (%) Post-dose 1 D 14 ([1]; Table 7): 5.224% | Body weight change (%) Post-dose 2 D 15 ([1]; Table 7): −4.078% | Body weight change (%) Post-dose 2 D 16 ([1]; Table 7): −0.804% | Body weight change (%) Post-dose 2 D 21 ([1]; Table 7): 1.856%

Poly(I:C) [reference compound]
HI titer Fold (compare to H3N2) (H3N2; mouse, in vivo): 1 | HI titer Fold (compare to SynSap 21) (H3N2; mouse, in vivo): 0.5 | HI titer Fold (compare to TLR3) (H3N2; mouse, in vivo): 0.3299 | HI titer GMT mean (H3N2; mouse, in vivo): 640
